For series [1] the following is noted: comparable conditions, 1 M salt solution, cited from earlier work.
Series [2] concerns Mouse macrophages J774A.1. As to the kind of experiment: Membrane permeabilization assay (propidium iodide uptake). Type of series: cell-based. The settings on record: LPPOs 10 mg/L, melittin 10 μM. The protocol:
Mouse macrophages J774A.1 (ATCC, number TIB-67) were cultured at 37°C in a humidified air/CO2 (19:1) atmosphere in RPMI medium supplemented with 10% (v/v) heat-inactivated fetal bovine serum, penicillin (100 IU/ml), streptomycin (100 mg/L), and amphotericin B (250 μg/L). For fluorescence measurements, cells were mechanically harvested, seeded on glass coverslips in 6-well plates, and grown to 30% confluence (about 2x10^5 cells). Cells grown on coverslips were washed in modified HBSS solution (140 mM NaCl, 5 mM KCl, 2 mM CaCl2, 3 mM MgCl2, 10 mM HEPES-Na, 50 mM glucose, pH 7.4) and promptly mounted into custom-made polypropylene holder which was placed horizontally into a quartz cuvette filled with HBSS containing 10 μM PI. The uptake of PI was observed as fluorescence increase using identical setting as with bacterial cells (see above). The observed area of the coverslip was about 10 mm^2, corresponding to approximately 10^4 cells.

Another series relates to B. subtilis 168. Description: Selection for resistant strains, stepwise two-fold increased concentration. As to conditions: 24 h cultures, two-fold increased concentration each transfer; rifampicin from 0.01 mg/L, DR5026 from 0.5 mg/L. Type of series: cell-based, Bacillus subtilis. How it is done: A) B. subtilis. […] Then, the growth of the culture was evaluated by OD600nm and an aliquot of the culture was transferred to a new tube with fresh medium and a two-fold increased concentration of the active compound. This template was followed until no growth was detected for DR5026 or until B. subtilis grew at 5 mg/L of rifampicin.

The subject of a further series is Bacillus subtilis. Description: MIC, standard microdilution method. On the technique in general: Dilution methods test growth across graded concentrations, often in twofold steps.

Data on 4 compounds can be found in publication PMC4696656, “Insights into the Mechanism of Action of Bactericidal Lipophosphonoxins” (PLoS ONE, 2015).

In brackets after ≈: the same amount, converted by molar mass. Like-named read-outs stand apart in the source and are kept apart here.

For the compound alamethicin, the channel conductance result in series [1] (no reference given) is “ca. 600 pS”.
For the compound gramicidin A, the channel conductance entry in series [1] is reported as “ca. 20 pS”.
For melittin, the “effect on cytoplasmic membrane permeability (PI uptake)” value in series [2] is listed as “did so”.
Usually MIC stands for the lowest concentration found to suppress growth. With `CO[C@H]1/C=C/O[C@@]2(C)Oc3c(C)c(O)c4c(O)c(c(/C=N/N5CCN(C)CC5)c(O)c4c3C2=O)NC(=O)/C(C)=C\C=C\[C@H](C)[C@H](O)[C@@H](C)[C@@H](O)[C@@H](C)[C@H](OC(C)=O)[C@@H]1C` [rifampicin, reference compound], the development of resistance entry with B. subtilis 168 is given as “able to obtain cells growing in the presence of 5 mg/L of rifampicin”. In addition, in the series with Bacillus subtilis (B. subtilis 168, as stated for the resistance selection experiment), the “MIC against wt B. subtilis” value is recorded as 0.06 mg/L (≈ 0.0729 µM). In the series on Bacillus subtilis (Bacillus subtilis, read-out: MIC against wt B. subtilis, B. subtilis 168, as stated for the resistance selection experiment), the MIC was approximately 0.06 µg/mL (≈ 0.0729 µM).
